Results as given in patent publication US9629866B2, “Use of cordycepin in manufacture of medicaments for anti-depression” (BEIJING GRAGEN BIOTECHNOLOGY CO. LTD., priority 2012, dated 2017).

Tests used:
Format in all cases: in vivo
CD1 male mice [1] = assay: Mice tail suspension test (animal depression model)
Protocol: In the mice tail suspension test, mice present the special quiet immobility state without any struggle in the tail suspension state, and antidepressant drugs can obviously shorten the duration of the immobility state. When tested, mice tails are fixed with clips, hanging upside-down. […] The time of immobility is recorded. The immobility indicator is “animal has no body movement in addition to breathing”. […] Laboratory Animal: CD1 mice, male, 25 g˜35 g, provided by Beijing Vital River Laboratories (VRL) (License No.: SCXK (Beijing), 2011-0011). Animals were kept in separate cages with free access to water; feed is provided by Laboratory Animal Center, Institute of Genetics and Developmental Biology, Chinese Academy of Sciences; laboratory mice ate ordinary feed. […] Drugs were delivered at 10 a.m. by intraperitoneal injection, 90 minutes after which tail suspension test statistics started. In mice tail suspension test, mice tails were stuck to a horizontal rail with tape 2 cm away from the tail tip, making animals upside down, whose heads were about 15 cm from the desktop. After observing for 6 minutes, the accumulative immobility time within the following 4 minutes was recorded. The immobility indicator was “animal has no body movement in addition to breathing”. Statistical Method: The laboratory results were all expressed by “mean value±SE”; two sample means were compared by t test.

CD1 male mice [2] = assay: Mice forced swimming test; details: for forced swimming immobility time within 4 minutes: blank control 111.96±14.58 s, mean±SE, P<0.05
Source text: “Immobility” herein refers to that “animals stop struggling in the water, or stay in a floating state, only showing nostrils for breathing with only small body movement to keep the head floating on the water”. Before the test, the drugs to be screened are given. The animals in the condition of forced swimming cannot escape from the harsh environment, leading to despairing animal behaviors. […] Laboratory Animal: CD1 mice, male, provided by Beijing Vital River Laboratories (VRL) (License No.: SCXK (Beijing), 2011-0011). Animals were kept in separate cages a week before test, with a light and shade cycle of 12 h/12 h, at room temperature 20° C.˜22° C., and with free access to water and food. Feed is provided by Laboratory Animal Center, Institute of Genetics and Developmental Biology, Chinese Academy of Sciences. CD1 mice, 7 weeks old, 25 g-35 g, were used for test after acclimating for 1 week. Mice were divided into 5 groups randomly, 8 mice for each. They were treated in the same way as Example 1: Drugs were delivered at 10 a.m. by intraperitoneal injection, once a day for 3 days, then forced swimming test started. Forced swimming test: All CD1 mice in each group were separately and vertically put into the organic glass cylinder (40 cm×14 cm in diameter) with 15 cm-depth and 23° C. water. After recoding a video of each dose group and control group for 6 minutes, the accumulative immobility time within the following 4 minutes was compared between each group. […] The laboratory results were all expressed by “mean value±SE”; two sample means were compared by t test.

CD1 male mice [3] = assay: Mice open field test to verify central excitability; details: measuring time 1 h/mouse, control 424.15+82.78 s, Anova p>0.05, N=12
Source text: Laboratory materials and methods are the same as Example 1 and Example 2.
Considering that the reduced immobility time of animals in classic animal depression models may be due to the central excitability effect of drugs, we conducted a mice open field test to verify the central excitability of cordycepin. Mice were processed 1 d before the open field behavior test. They were kept in the open box with 80 cm in both length and width, 40 cm in height, black wall, 16 equal sections in area, and indoor sound insulation. After the test started, mice were put in the middle of the box, and the time of mice staying in the central 4 sections was taken as a parameter. The measuring time was 1 h/mouse every time. […] Besides, there is no rising trend, so for cordycepin, the possibility of causing the manic state can be ruled out.

[4] = high-dose 12.5 mg/kg i.p. once a day for 3 days
[5] = low-dose 5 mg/kg i.p. once a day for 3 days

time staying in the central 4 sections (CD1 male mice [3]; high-dose group): 379.88+95.28 s
time staying in the central 4 sections (CD1 male mice [3]; low-dose group): 399.75+72.25 s
Structure (SMILES): Nc1ncnc2c1ncn2[C@@H]1O[C@H](CO)C[C@H]1O [cordycepin, 3′-deoxyadenosine]
time needed for antidepressant effect to be very obvious (CD1 male mice [1]; high-dose 12.5 mg/kg i.p.): 1.5 h
decrease of tail suspension immobility time vs blank control (CD1 male mice [1]; high-dose 12.5 mg/kg i.p., 90 min after injection): 60.8%
tail suspension immobility time (CD1 male mice [1]; high-dose 12.5 mg/kg i.p., 90 min after injection, blank control 86.43±20.37 s, mean±SE, P<0.05): 33.86 ± 7.46 s
tail suspension immobility time vs control (CD1 male mice [1]; low-dose 5 mg/kg i.p., 90 min after injection): has not been significantly reduced
antidepressant effect compared with imipramine (15 mg/kg) (CD1 male mice [2]; [4]): stronger antidepressant effects
decrease of forced swimming immobility time vs blank control (CD1 male mice [2]; [4]): 68.8%
forced swimming immobility time within 4 minutes (CD1 male mice [2]; [4]): 34.94 ± 12.16 s
decrease of forced swimming immobility time vs blank control (CD1 male mice [2]; [5]): 37.6%
forced swimming immobility time within 4 minutes (CD1 male mice [2]; [5]): 69.88 ± 10.25 s
